Experimental data from PubChem BioAssay AID1845207 (Molecular Pharmacology Branch, DTP, NCI, 2023).
“And” between values parts separate entries of the source, which are not always exact repeats. Identical values can stand only once. The source made the active and inactive calls. How the source made its calls: active means viability on the fitted dose curve at most 10% of control; inactive means the rest.

Tested on: NCI-H1876 tumor spheroid viability
Assay: Anticancer human tumor NCI-H1876 cell line growth inhibition;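 further: spheroids exposed to compounds for seven days before the viability read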;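 on viability, T/C: percent of DMSO vehicle control viability so 100% = vehicle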
Details: spheroids with HUVEC and MSC; for viability, T/C: stronger effect = lower value
Source text: Multicellular complex tumor spheroid response to DNA repair inhibitors in combination with DNA-damaging drugs
This study explores the anticancer activities of DNA-damaging drugs and inhibitors of DNA damage repair, both as single agents and in combinations. Complex tumor spheroids comprised of malignant cells, endothelial cells and mesenchymal stem cells served as an in vitro model for human solid tumors. This model system incorporates physiologically relevant features and patient-derived or established malignant cell lines with clinically relevant genetic alterations from many tumor types. Twenty-six patient-derived or established malignant cell lines were evaluated representing sarcoma, melanoma, small cell lung cancer (SCLC), non-small cell lung cancer (NSCLC), as well as bladder, ovarian and pancreatic cancers. The concentration ranges selected for each drug and investigational agent were based upon clinically achievable concentrations if the clinical Cmax of the agent was known.
Compounds. The drugs and compounds olaparib (NSC753686), talazoparib (NSC767125), berzosertib (NSC777718), elimusertib (NSC800525), nedisertib (NSC802822), VX-984 (NSC792969), AZD-1390 (NSC803789), temozolomide (NSC362856), topotecan (NSC609699), trabectedin (NSC813783), staurosporine (NSC755774), and gemcitabine (NSC613327) were obtained from the National Cancer Institute (NCI) Developmental Therapeutics Program Chemical Repository. The FDA-approved anticancer drug set is available from the Developmental Therapeutics Program at https://dtp.cancer.gov/organization/dscb/obtaining/available_plates.htm. […] The stock solutions were prepared in dimethyl sulfoxide (DMSO, Sigma-Aldrich, St. Louis, MO, cat. D2650) at 400-fold the tested concentration and stored at -70 degrees C. Prior to their use, the stock solutions were diluted in fresh medium and the final DMSO concentration in the assay was 0.25% (v/v). All drugs and investigational agents were tested over a range starting from a high concentration at or near the clinical Cmax and decreasing in half-log increments. If the clinical Cmax for an agent had not been determined, the highest concentration tested was 10 microM.
Cell Lines. The patient-derived cancer cell (PDC) lines: 156681-154-R-J1-PDC, 283228-195-R-J1-PDC, 287954-098-R-J1-PDC, 292921-168-R-J2-PDC, 349418-098-R-PDC, 425362-245-T-J1-PDC, 556581-035-R-J1-PDC, and BL0293-F563-PDC were received from the NCI Patient-Derived Models Repository (PDMR, https://pdmr.cancer.gov). The established cell lines HS-SY-2 (RRID:CVCL_8719), MPNST, and SYO-1 (RRID:CVCL_7146) were obtained from the Sloan Kettering Institute. The alveolar soft parts sarcoma cell line ASPS-1 (RRID:CVCL_S738) was established at the NCI and grown from internal seed stocks. The following established cell lines were purchased from the American Type Culture Collection (ATCC, Manassas, VA): G-401 (ATCC, cat. CRL-1441, RRID:CVCL_0270), SW982 (ATCC, cat. HTB-93, RRID:CVCL_1734), VA-ES-BJ (ATCC, cat. CRL-2138, RRID:CVCL_1785), NCI-H719 (ATCC, cat. CRL-5837, RRID:CVCL_1582), NCI-H196 (ATCC, cat. CRL-5823, RRID:CVCL_1509), NCI-H841 (ATCC, cat. CRL-5845, RRID:CVCL_1595), NCI-H1618 (ATCC, cat. CRL-5879, RRID:CVCL_1480), NCI-H1876 (ATCC, cat. CRL-5902, RRID:CVCL_1503), DMS 114 (ATCC, cat. CRL-2066; RRID:CVCL_1174), NCI-H211 (ATCC, cat. CRL-5824; RRID:CVCL_1529), and SW 1271 (ATCC, cat. CRL-2177, RRID:CVCL_1716). The small cell lung cancer cell line COR-L88 was purchased from Sigma-Aldrich (cat. 92031917-1VL, RRID:CVCL_1141). The non-small cell lung cancer cell lines NCI-H226 (RRID:CVCL_1544) and NCI-H322M (RRID:CVCL_1557) were established at the NCI and grown from internal seed stocks. Pooled donor human umbilical vein endothelial cells (HUVEC, Lonza, cat. CC-2519) and human mesenchymal stem cells (hMSC, Lonza, cat. PT-2501) were purchased from Lonza (Walkersville, MD).
Cell Culture. All cells were maintained in an incubator at 37 degrees C and 5% CO2 with 95% humidity. […]

COc1ccc([C@@H](O)c2cc(-c3ncnc4cc(N5CCOCC5)ccc34)c(F)cc2Cl)nn1 + COc1cc2c(cc1O)CCNC21CSC2c3c(OC(C)=O)c(C)c4c(c3C(COC1=O)N1C(O)C3Cc5cc(C)c(OC)c(O)c5C(C21)N3C)OCO4
2540 nM: IC50 (curve of first compound, second compound 30 pM)
inactive: viability, T/C (second compound 30 pM, first compound 0.0316 µM) 104% | viability, T/C (second compound 30 pM, first compound 0.1 µM) 102% | viability, T/C (second compound 30 pM, first compound 0.316 µM) 99.5% | viability, T/C (second compound 30 pM, first compound 1 µM) 92% | viability, T/C (second compound 30 pM, first compound 3.16 µM) 40.2% | viability, T/C (second compound 94.9 pM, first compound 0.0316 µM) 93% | viability, T/C (second compound 94.9 pM, first compound 0.1 µM) 87.6% | viability, T/C (second compound 94.9 pM, first compound 0.316 µM) 78% | viability, T/C (second compound 94.9 pM, first compound 1 µM) 41.5% | viability, T/C (second compound 94.9 pM, first compound 3.16 µM) 16.1% | viability, T/C (second compound 0.0003 µM, first compound 0.0316 µM) 20.7% | viability, T/C (second compound 0.0003 µM, first compound 0.1 µM) 20.1% | viability, T/C (second compound 0.0003 µM, first compound 0.316 µM) 15.1%
778 nM: IC50 (curve of first compound, second compound 94.9 pM)
< 31.6 nM: IC50 (curve of first compound, second compound 0.0003 µM) | IC50 (curve of first compound, second compound 0.000949 µM) | IC50 (curve of first compound, second compound 0.003 µM)
active: viability, T/C (second compound 30 pM, first compound 10 µM) 8.98% | viability, T/C (second compound 94.9 pM, first compound 10 µM) 5.87% | viability, T/C (second compound 0.0003 µM, first compound 1 µM) 7.3% | viability, T/C (second compound 0.0003 µM, first compound 3.16 µM) 2.15% | viability, T/C (second compound 0.0003 µM, first compound 10 µM) 2.31% | viability, T/C (second compound 0.000949 µM, first compound 0.0316 µM) 2.44% | viability, T/C (second compound 0.000949 µM, first compound 0.1 µM) 2.76% | viability, T/C (second compound 0.000949 µM, first compound 0.316 µM) 3.13% | viability, T/C (second compound 0.000949 µM, first compound 1 µM) 1.08% | viability, T/C (second compound 0.000949 µM, first compound 3.16 µM) 0.81% | viability, T/C (second compound 0.000949 µM, first compound 10 µM) 0.98% | viability, T/C (second compound 0.003 µM, first compound 0.0316 µM) 0.93% | viability, T/C (second compound 0.003 µM, first compound 0.1 µM) 0.67% | viability, T/C (second compound 0.003 µM, first compound 0.316 µM) 0.53% | viability, T/C (second compound 0.003 µM, first compound 1 µM) 0.63% | viability, T/C (second compound 0.003 µM, first compound 3.16 µM) 0.36% | viability, T/C (second compound 0.003 µM, first compound 10 µM) 0.33%

COc1cc2c(cc1O)CCNC21CSC2c3c(OC(C)=O)c(C)c4c(c3C(COC1=O)N1C(O)C3Cc5cc(C)c(OC)c(O)c5C(C21)N3C)OCO4 (configuration not stated)
inactive: viability, T/C (compound 30 pM) 102% [middle of 10 runs] | viability, T/C (compound 94.9 pM) 90.2% [middle of 10 runs]
active: viability, T/C (compound 0.000949 µM) 2.68% [middle of 10 runs] | viability, T/C (compound 0.003 µM) 0.78% [middle of 10 runs]
0.197 nM [middle of 10 runs]: IC50 (compound alone, run of 12/16/2019)

COc1ccc([C@@H](O)c2cc(-c3ncnc4cc(N5CCOCC5)ccc34)c(F)cc2Cl)nn1
5500 nM and 1120 nM and 6510 nM: IC50 (curve of compound)
inactive: viability, T/C (compound 0.0316 µM) 105% and 98% and 103% | viability, T/C (compound 0.1 µM) 104% (2×) and 95.2% | viability, T/C (compound 0.316 µM) 102% and 74.6% and 96.1% | viability, T/C (compound 1 µM) 97.6% and 98% | outcome (compound 1 µM) | viability, T/C (compound 3.16 µM) 81.2% and 26.2% and 77.6%
